Assay [1] addresses Voltage-dependent T-type calcium channel subunit alpha-1H (Homo sapiens, UniProt O95180). The format is functional.
Assay [2] addresses T1, Acyl-homoserine lactone acylase PvdQ (Pseudomonas aeruginosa (strain LESB58), UniProt Q9I194).
T1 sequence (Q9I194 whole entry): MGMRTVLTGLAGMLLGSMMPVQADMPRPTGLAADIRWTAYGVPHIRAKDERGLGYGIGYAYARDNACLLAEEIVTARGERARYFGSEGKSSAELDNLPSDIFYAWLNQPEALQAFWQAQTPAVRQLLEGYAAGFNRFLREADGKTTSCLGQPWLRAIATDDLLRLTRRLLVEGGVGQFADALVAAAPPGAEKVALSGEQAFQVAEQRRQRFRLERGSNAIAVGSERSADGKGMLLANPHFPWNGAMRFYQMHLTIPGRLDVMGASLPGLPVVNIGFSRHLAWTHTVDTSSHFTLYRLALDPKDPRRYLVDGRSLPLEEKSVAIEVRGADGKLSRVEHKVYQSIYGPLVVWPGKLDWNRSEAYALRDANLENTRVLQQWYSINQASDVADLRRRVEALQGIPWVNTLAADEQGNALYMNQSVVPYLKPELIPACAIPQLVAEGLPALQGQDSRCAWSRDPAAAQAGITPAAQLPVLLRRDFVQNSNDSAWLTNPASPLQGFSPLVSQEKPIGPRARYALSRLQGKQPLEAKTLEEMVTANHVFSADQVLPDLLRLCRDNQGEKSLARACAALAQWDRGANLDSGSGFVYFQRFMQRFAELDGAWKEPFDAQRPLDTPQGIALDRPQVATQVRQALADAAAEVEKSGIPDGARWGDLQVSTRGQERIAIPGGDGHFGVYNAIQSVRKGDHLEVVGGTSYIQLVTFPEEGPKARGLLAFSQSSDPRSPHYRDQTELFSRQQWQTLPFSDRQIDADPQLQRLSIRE
As to the kind of experiment: PvdQ acylase enzyme activity blockers – biochemical, fluorescence, plate reader and imaging, cherry-picks, dose response (AID 493231).

Assay [3] in a line: luciferase reporter signal suppression in cells – H4 neuroglioma cells, luminescence, dose response (AID 1990). The assay is classed as functional, cell-based.
The nature of assay [4]: Luminescence Cell-Based Dose Response HTS to Identify Inhibitors of 5'UTR Stem-Loop Driven Prion Protein mRNA Translation in H4 Neuroglioblastoma Cells. [Related pubchem assays: 1827 (Project Summary), 1813 (Primary HTS)]. The assay is classed as functional.
Assay [5] in a line: alpha-synuclein stem-loop luciferase translation blockers – H4 neuroglioma cells, luminescence, confirmation (AID 1988). The format is functional, cell-based.
A short description of assay [6]: HEK-293T cell viability reduction – luminescence, B-cell screen hits, cytotoxicity control for BCR NF-kB inhibitor project, dose response (AID 489021).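 Note: HEK-293T cells carrying an NF-kB luciferase reporter; cells exposed to compound for about 14 hours before viability readout.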 The format is functional, cell-based.
The subject of a further assay is HEK293. The assay can be described thus: EBV LMP1 TES2 canonical NF-kB signalling blockers – cell-based, HEK293, luciferase, cherry-pick, dose response (AID 588343). The assay is classed as functional. To be noted: Homo sapiens.
The nature of assay [7]: cells. The format is functional, cell-based.
Assay [8] in a line: cells. The assay is classed as functional, cell-based. The source holds these as a separate data set.
Assay [9] concerns the target T2, Replicative DNA helicase DnaB (Mycobacterium tuberculosis, UniProt P9WMR3).
T2 sequence (P9WMR3 whole entry): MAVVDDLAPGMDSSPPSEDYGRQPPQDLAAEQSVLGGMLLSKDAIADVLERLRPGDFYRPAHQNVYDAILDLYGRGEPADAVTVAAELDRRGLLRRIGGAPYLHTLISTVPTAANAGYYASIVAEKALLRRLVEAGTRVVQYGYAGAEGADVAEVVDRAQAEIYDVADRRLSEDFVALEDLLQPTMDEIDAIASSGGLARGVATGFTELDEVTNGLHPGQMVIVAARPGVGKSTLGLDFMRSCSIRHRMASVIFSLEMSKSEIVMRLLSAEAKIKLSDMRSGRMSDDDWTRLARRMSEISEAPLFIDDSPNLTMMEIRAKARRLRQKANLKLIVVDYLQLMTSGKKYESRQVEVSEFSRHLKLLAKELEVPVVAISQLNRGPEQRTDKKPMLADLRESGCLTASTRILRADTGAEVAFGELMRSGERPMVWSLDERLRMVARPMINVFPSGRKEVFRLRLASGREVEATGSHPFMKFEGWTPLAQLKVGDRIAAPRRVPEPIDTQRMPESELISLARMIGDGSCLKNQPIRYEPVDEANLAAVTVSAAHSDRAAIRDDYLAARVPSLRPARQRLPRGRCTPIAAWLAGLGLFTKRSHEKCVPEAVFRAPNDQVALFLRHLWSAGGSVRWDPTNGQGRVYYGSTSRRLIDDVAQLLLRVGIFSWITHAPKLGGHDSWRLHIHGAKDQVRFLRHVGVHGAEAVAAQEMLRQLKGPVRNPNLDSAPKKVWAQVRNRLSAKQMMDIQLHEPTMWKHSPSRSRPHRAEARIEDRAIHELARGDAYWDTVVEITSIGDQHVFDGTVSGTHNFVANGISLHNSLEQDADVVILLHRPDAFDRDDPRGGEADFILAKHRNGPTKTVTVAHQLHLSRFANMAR
The assay can be described thus: DnaB intein splicing inhibitors, dose response, biochemical, cell-free fluorescence (AID 449749). The format is functional.

The target in another assay is T3, Protein RecA (Mycobacterium tuberculosis, UniProt P9WHJ3).
T3 sequence (P9WHJ3 whole entry): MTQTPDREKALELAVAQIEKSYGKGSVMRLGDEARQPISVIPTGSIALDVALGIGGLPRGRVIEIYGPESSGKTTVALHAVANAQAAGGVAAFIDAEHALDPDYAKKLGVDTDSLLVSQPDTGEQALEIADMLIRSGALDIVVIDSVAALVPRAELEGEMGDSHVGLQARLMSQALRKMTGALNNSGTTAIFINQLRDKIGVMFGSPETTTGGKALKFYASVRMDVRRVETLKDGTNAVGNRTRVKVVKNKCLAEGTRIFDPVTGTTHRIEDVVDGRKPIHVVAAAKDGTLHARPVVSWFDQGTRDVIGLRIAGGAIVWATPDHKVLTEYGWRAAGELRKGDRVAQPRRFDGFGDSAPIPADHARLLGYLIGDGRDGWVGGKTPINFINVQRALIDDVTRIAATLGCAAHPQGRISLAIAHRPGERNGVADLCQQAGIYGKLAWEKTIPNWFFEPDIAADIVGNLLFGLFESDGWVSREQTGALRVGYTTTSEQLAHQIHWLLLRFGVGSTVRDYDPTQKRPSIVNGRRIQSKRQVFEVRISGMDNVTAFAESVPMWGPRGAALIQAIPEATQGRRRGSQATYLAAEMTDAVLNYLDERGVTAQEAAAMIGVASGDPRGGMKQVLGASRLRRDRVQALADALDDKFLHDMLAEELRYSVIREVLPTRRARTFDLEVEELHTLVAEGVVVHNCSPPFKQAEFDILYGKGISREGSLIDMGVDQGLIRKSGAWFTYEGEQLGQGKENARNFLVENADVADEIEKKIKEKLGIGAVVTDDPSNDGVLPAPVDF
As to the kind of experiment: Fluorescence Cell-Free Homogeneous Dose Retest to Identify Inhibitors of RecA-Intein Splicing Activity. [Related pubchem assays (depositor defined):AID2097, AID2223, AID489010, AID492950]. The format is functional.

The target in a further assay is Cytochrome P450 3A4 (Homo sapiens, UniProt P08684). Particulars: Potency.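 Note: confirmatory qHTS run detecting inhibitors and substrates of CYP3A4.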
Assay [10] deals with BJ. As to the kind of experiment: BJ-TERT fibroblast viability loss – cell-based, RAS-independent, luminescence, dose response (AID 1933). The format is functional, Homo sapiens. Particulars: Homo sapiens, BJ.
Assay [11] relates to BJ. The assay can be described thus: cells. The assay is classed as functional, cell-based, Homo sapiens. Particulars: Homo sapiens, BJ.
Assay [12] concerns BJ. The assay can be described thus: BJ-TERT-LT-ST fibroblast viability loss – cell-based, RAS-independent, luminescence, dose response (AID 1935).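 Note: BJ fibroblasts immortalized with TERT plus LT and ST oncogenes.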 The format is functional, Homo sapiens. Particulars: Homo sapiens, BJ.
Assay [13] can be described thus: DRD fibroblast viability loss – cell-based, non-viral oncogenic, luminescence, dose response (AID 1934). The format is functional. Particulars: Homo sapiens.
A short description of assay [14]: NIH-3T3 fibroblast cytotoxicity, dose response, cytotoxicity control, cell-based, fluorescence, Alamar Blue, secondary assay (AID 2327).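 Note: NIH-3T3 mouse fibroblasts cultured with fluconazole at 8 µg/mL.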 The format is functional.
The nature of assay [15]: fluconazole-exposed Candida albicans growth modulators – fluorescence, retest, confirmation (AID 2467). The assay is classed as functional, cell-based.
The subject of the next assay is INS1. The assay can be described thus: INS-1E survival protection against cytokine death – cell-based, luminescence, retest, dose response (AID 449756).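 Note: cell death triggered by IL-1 beta plus TNF-alpha plus IFN-gamma mixture; protective hits raise ATP signal compared with cytokine alone wells.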 Particulars: Rattus norvegicus. The assay is classed as functional.
Assay [16] addresses T4, Rac GTPase-activating protein 1 (Homo sapiens, UniProt Q9H0H5).
T4 sequence (Q9H0H5 whole entry): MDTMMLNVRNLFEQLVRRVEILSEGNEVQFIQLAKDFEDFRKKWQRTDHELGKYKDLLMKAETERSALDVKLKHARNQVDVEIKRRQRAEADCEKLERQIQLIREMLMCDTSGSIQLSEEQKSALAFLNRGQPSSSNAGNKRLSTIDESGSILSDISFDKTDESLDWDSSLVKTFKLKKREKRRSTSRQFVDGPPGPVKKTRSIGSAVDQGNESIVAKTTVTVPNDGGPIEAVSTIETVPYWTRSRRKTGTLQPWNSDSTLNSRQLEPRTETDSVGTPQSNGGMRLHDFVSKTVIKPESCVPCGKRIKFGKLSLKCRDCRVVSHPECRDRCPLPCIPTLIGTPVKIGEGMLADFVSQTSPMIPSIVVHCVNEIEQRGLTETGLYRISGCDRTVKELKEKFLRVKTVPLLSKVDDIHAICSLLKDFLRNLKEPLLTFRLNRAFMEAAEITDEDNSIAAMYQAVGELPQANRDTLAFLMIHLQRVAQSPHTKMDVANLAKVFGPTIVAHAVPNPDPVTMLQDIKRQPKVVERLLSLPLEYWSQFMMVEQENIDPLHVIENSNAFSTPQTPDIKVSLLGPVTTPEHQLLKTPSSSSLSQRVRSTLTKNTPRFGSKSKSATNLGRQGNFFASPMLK
The assay can be described thus: blockers of MgcRacGAP-driven Rac1 GTP hydrolysis – biochemical, ADP Hunter fluorescence, primary and confirmatory, confirmation (AID 624330). The format is functional.

Calls of active or inactive are those of the source.

EC50, AC50 and IC50 data for 16 compounds are collected here from ChEMBL document CHEMBL1201862, “PubChem BioAssay data set” (2004).

Cytochrome P450 3A4, sequence (P08684 whole entry): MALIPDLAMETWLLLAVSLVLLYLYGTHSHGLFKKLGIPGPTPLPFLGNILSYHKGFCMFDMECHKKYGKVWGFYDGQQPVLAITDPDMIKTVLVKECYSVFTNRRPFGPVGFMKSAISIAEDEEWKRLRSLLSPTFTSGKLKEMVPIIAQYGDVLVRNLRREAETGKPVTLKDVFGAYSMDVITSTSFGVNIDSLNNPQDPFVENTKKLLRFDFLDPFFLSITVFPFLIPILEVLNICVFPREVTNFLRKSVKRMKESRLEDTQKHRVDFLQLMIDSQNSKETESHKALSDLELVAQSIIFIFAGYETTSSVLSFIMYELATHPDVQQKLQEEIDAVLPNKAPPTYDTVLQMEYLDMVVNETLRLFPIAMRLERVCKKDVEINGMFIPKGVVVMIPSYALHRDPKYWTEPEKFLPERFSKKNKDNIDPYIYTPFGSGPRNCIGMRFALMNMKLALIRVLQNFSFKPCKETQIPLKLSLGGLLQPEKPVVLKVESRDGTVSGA
Voltage-dependent T-type calcium channel subunit alpha-1H, sequence (O95180 whole entry): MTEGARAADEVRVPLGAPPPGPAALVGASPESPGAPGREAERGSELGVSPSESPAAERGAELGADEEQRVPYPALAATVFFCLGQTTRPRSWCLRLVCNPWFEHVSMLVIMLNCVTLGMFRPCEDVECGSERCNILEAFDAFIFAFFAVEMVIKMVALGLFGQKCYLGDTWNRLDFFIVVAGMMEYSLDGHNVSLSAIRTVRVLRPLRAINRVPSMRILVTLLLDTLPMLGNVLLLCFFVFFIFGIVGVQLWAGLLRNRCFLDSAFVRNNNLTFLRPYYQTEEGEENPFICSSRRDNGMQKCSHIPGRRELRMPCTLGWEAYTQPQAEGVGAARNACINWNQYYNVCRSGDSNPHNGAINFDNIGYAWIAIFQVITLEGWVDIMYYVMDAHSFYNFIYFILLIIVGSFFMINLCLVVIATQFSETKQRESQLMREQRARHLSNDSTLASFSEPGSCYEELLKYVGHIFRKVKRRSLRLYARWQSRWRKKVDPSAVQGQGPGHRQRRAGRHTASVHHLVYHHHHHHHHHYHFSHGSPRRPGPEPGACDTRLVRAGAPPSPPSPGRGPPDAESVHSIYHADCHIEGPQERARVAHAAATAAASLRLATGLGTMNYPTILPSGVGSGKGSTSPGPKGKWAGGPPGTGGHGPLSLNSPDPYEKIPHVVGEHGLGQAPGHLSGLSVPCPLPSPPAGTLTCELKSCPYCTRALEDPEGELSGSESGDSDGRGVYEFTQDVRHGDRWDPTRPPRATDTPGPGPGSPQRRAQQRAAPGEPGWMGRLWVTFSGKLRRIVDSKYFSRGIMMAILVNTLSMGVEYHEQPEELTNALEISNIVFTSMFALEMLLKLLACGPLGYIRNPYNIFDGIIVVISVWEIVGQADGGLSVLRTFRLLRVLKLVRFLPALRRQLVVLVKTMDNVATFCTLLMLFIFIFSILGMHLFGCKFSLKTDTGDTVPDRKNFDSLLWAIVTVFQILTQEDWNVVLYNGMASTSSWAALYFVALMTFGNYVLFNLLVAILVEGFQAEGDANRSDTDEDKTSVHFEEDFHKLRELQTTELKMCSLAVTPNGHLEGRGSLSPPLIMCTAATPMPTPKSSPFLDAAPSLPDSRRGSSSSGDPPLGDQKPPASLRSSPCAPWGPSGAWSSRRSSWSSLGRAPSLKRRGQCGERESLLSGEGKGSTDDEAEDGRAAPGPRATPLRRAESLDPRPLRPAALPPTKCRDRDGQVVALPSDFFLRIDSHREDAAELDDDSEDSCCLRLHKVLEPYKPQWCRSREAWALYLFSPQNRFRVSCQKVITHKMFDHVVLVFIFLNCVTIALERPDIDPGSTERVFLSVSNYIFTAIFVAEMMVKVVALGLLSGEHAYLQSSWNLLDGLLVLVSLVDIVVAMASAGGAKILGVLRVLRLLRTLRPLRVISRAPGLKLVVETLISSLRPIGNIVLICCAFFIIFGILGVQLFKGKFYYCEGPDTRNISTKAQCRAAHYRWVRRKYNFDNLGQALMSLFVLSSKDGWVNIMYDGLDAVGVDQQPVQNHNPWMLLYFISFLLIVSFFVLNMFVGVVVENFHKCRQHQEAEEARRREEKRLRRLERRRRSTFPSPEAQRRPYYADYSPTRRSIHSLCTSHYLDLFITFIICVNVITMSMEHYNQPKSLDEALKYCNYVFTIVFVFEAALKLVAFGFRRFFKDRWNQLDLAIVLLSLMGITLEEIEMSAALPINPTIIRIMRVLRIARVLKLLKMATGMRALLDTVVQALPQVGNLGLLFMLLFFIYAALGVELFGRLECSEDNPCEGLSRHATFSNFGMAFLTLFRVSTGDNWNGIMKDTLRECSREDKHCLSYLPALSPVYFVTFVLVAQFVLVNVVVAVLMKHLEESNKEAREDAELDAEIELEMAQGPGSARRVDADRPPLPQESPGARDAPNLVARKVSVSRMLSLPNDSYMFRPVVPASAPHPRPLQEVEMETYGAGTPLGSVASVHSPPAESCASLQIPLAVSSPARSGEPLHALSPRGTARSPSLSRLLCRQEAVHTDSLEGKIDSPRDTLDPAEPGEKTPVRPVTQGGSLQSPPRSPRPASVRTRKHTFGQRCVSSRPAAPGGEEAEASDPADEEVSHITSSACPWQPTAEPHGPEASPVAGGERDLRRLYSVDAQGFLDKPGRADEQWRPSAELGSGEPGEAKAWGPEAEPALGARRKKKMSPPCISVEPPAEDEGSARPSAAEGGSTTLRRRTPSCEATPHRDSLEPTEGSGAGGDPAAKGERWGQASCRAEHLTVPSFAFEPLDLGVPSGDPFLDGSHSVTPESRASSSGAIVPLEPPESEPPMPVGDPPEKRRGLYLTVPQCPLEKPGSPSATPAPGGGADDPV

For `O=C(CN1CCN(c2ccccn2)CC1)N(c1ccccc1)c1ccc2ccccc2c1`, the EC50 in assay [1] was 6.52 µM (active).

Take `Brc1ccc(-c2nnc(-c3ccco3)o2)cc1`: the AC50 in assay [2] is 46.2 µM (active).

On to `O=C(CCCN1C(=O)/C(=C/c2ccccc2Cl)SC1=S)NNC(=O)c1ccccc1Cl`, for which the half-maximal effective concentration (EC50) in assay [3] was 5.95 µM (active); in assay [4], 10.5 µM (active); in assay [5] it was 7.8 µM (active). Besides, in [6], the IC50 was > 80 µM (inactive). Moreover, the concentration at half-maximal activity (AC50) in the assay on HEK293 was 9.18 µM (active).

In the case of `Cc1ccccc1NC(=O)c1ccc(CN2CCc3ccccc3C2)cc1`, the EC50 in assay [1] was 2.28 µM (active).

Consider `Cc1nn(Cc2ccccc2)c(C)c1NC(=O)c1cc(-c2ccco2)on1`, for which the concentration for a half-maximal effect (EC50) in assay [1] was 9.33 µM (active).

As for `CCCc1n[nH]c2c1C(c1ccoc1)C(C#N)=C(N)O2` (stereo not drawn), the concentration giving a half-maximal response (EC50) in “cells [7]” was > 350 µM (not active); in “cells [8]”, > 350 µM (not active); on Protein RecA, 2.39 µM (active). In assay [9], the AC50 is 4.51 µM (active).

For the compound `CCN(CC)CCCCn1c(-c2ccccc2)nc2c(NC3CCCCC3)nc(C)nc21`, the concentration at half-maximal activity (AC50) on Cytochrome P450 3A4 is 25.1 µM (inconclusive).

In the case of `O=S1(=O)CCOC[C@H](c2ccccc2)N1Cc1cccc(Cl)c1`, the AC50 in [2] was 12.7 µM (active).

With `O=C1C=C(c2cc(F)ccc2F)C[C@@H](c2ccc(F)cc2)C1`, the concentration at half-maximal activity (AC50) in assay [2] was 9.05 µM (active).

Take `Cc1ccccc1-n1c(SCc2c(C)noc2C)nnc1-c1c[nH]c2ccccc12`: the IC50 in [6] is > 80 µM (inactive).

Regarding `Cc1nc(N2CCOCC2)c2nc(-c3ccccc3)n(CCN3CCCC3)c2n1`, the AC50 on Cytochrome P450 3A4 is 20 µM (inconclusive).

Take `CCOCCCNc1nc2c(C)cccn2c(=O)c1/C=C1\SC(=S)N(C(C)CC)C1=O` (stereo not drawn): the EC50 in the assay with BJ [10] is > 150 µM (not active); in the assay on BJ [11] it was > 150 µM (not active); with BJ [12], > 150 µM (inconclusive); in assay [13], 38.5 µM (active). In addition, in [6], the IC50 is > 80 µM (inactive).

Take `Cc1ccc(/C=N/NC(=O)c2c(-c3ccccc3)noc2C)c(O)c1`: the EC50 in [14] is > 150 µM (inactive); in “cells [7]”, 12.4 µM (active); in assay [15], 2.83 µM (active); in “cells [8]”, > 350 µM (not active). The AC50 in the assay on INS1 was 2.33 µM (active).

Take `CCOc1cc(/C=N/NC(=O)c2c(-c3ccccc3)noc2C)ccc1O`: the EC50 in the assay “cells [7]” and in the assay “cells [8]” was > 350 µM (not active) each time. In addition, the concentration for half-maximal inhibition (IC50) in assay [16] is 55.5 µM (active).

With `Nc1nc[nH]n1` [AMITROLE], the AC50 at Cytochrome P450 3A4 is 15.8 µM (inconclusive).

For the compound `COc1cc(O)c2c(=O)cc(C)oc2c1CC=C(C)C` [HETEROPEUCENIN, METHYL ETHER], the AC50 on Cytochrome P450 3A4 is 39.8 µM (inconclusive).

As a reminder, the EC50 is the concentration at which the effect is half-maximal. What is called AC50 is the concentration at which the activity in the assay is half-maximal. By IC50 is commonly meant the point on the concentration scale where inhibition reaches its midpoint.
